Measurements: PubChem BioAssay (NCI)
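Cultured in 96-well plates, cells were exposed to test compound for 48 hours across five concentrations. GI50: concentration for 50% inhibition of growth. TGI: concentration producing complete growth inhibition.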

Experiments:
Assay in all cases: NCI-60 cell line screen, 48 h
[1] = system: NCI/ADR-RES ovarian
[2] = system: SF-539 CNS
[3] = system: SF-295 CNS
[4] = system: NCI-H226 lung
[5] = system: HS 578T breast
[6] = system: KM12 colon
[7] = system: MDA-MB-231 breast
[8] = system: DU-145 prostate
[9] = system: HOP-92 NSCLC
[10] = system: RPMI-8226 leukemia
[11] = system: K-562 leukemia
[12] = system: RXF 393 renal
[13] = system: TK-10 renal
[14] = system: COLO 205 colon
[15] = system: OVCAR-8 ovarian
[16] = system: MALME-3M melanoma
[17] = system: BT-549 breast
[18] = system: OVCAR-4 ovarian
[19] = system: SNB-19 CNS
[20] = system: HOP-62 NSCLC
[21] = system: SW-620 colon
[22] = system: PC-3 prostate
[23] = system: CAKI-1 renal
[24] = system: A498 renal
[25] = system: NCI-H23 lung
[26] = system: SF-268 CNS
[27] = system: OVCAR-3 ovarian
[28] = system: HCC-2998 colon
[29] = system: OVCAR-5 ovarian
[30] = system: UO-31 renal
[31] = system: CCRF-CEM leukemia
[32] = system: SK-MEL-2 melanoma
[33] = system: 786-0 renal
[34] = system: MOLT-4 leukemia
[35] = system: MDA-MB-435
[36] = system: NCI-H460 lung
[37] = system: SK-OV-3 ovarian
[38] = system: SN12C renal
[39] = system: M14 melanoma
[40] = system: LOX IMVI melanoma
[41] = system: ACHN renal
[42] = system: NCI-H522 lung
[43] = system: T-47D breast
[44] = system: HCT-116 colon
[45] = system: EKVX NSCLC
[46] = system: HT29 colon
[47] = system: HCT-15 colon
[48] = system: SK-MEL-5 melanoma
[49] = system: SR leukemia
[50] = system: SNB-75 CNS
[51] = system: HL-60(TB) leukemia
[52] = system: UACC-62 melanoma
[53] = system: UACC-257 melanoma
[54] = system: SK-MEL-28 melanoma
[55] = system: MCF7 breast

Compound: Nc1cc2c([nH]c[n+]2CC#CCCl)c(SCC#CCCl)n1
- GI50 [1]: 1.71 µM
- TGI [1]: 4.24 µM
- GI50 [2]: 1.62 µM
- TGI [2]: 3.24 µM
- GI50 [3]: 1.54 µM
- TGI [3]: 3.08 µM
- GI50 [4]: 1.22 µM
- TGI [4]: 4.12 µM
- GI50 [5]: 1.69 µM
- TGI [5]: 7.47 µM
- GI50 [6]: 1.25 µM
- TGI [6]: 2.68 µM
- GI50 [7]: 1.39 µM
- TGI [7]: 3.2 µM
- GI50 [8]: 1.05 µM
- TGI [8]: 2.34 µM
- GI50 [9]: 1.84 µM
- TGI [9]: 3.86 µM
- GI50 [10]: 1 µM
- TGI [10]: 6.57 µM
- GI50 [11]: 1.97 µM
- TGI [11]: > 100 µM
- GI50 [12]: 1.2 µM
- TGI [12]: 2.56 µM
- GI50 [13]: 1.42 µM
- TGI [13]: 3.04 µM
- GI50 [14]: 1.46 µM
- TGI [14]: 2.9 µM
- GI50 [15]: 1.62 µM
- TGI [15]: 6.02 µM
- GI50 [16]: 1.09 µM
- TGI [16]: 3.17 µM
- GI50 [17]: 1.15 µM
- TGI [17]: 2.42 µM
- GI50 [18]: 1.57 µM
- TGI [18]: 7.17 µM
- GI50 [19]: 1.4 µM
- TGI [19]: 2.84 µM
- GI50 [20]: 1.4 µM
- TGI [20]: 2.99 µM
- GI50 [21]: 1.17 µM
- TGI [21]: 2.7 µM
- GI50 [22]: 1.4 µM
- TGI [22]: 4.34 µM
- GI50 [23]: 0.331 µM
- TGI [23]: 1.36 µM
- GI50 [24]: 1.1 µM
- TGI [24]: 2.44 µM
- GI50 [25]: 1.23 µM
- TGI [25]: 2.62 µM
- GI50 [26]: 0.552 µM
- TGI [26]: 2.01 µM
- GI50 [27]: 0.592 µM
- TGI [27]: 1.96 µM
- GI50 [28]: 1.77 µM
- TGI [28]: 3.17 µM
- GI50 [29]: 2.13 µM
- TGI [29]: 3.68 µM
- GI50 [30]: 0.763 µM
- TGI [30]: 2.33 µM
- GI50 [31]: 0.562 µM
- TGI [31]: > 100 µM
- GI50 [32]: 1.65 µM
- TGI [32]: 4.47 µM
- GI50 [33]: 1.27 µM
- TGI [33]: 3.05 µM
- GI50 [34]: 1.32 µM
- TGI [34]: > 100 µM
- GI50 [35]: 1.09 µM
- TGI [35]: 2.63 µM
- GI50 [36]: 0.374 µM
- TGI [36]: 1.5 µM
- GI50 [37]: 1.37 µM
- TGI [37]: 2.81 µM
- GI50 [38]: 1.16 µM
- TGI [38]: 3.42 µM
- GI50 [39]: 1.11 µM
- TGI [39]: 2.49 µM
- GI50 [40]: 0.363 µM
- TGI [40]: 1.44 µM
- GI50 [41]: 0.58 µM
- TGI [41]: 2.94 µM
- GI50 [42]: 0.522 µM
- TGI [42]: 2.08 µM
- GI50 [43]: 1.12 µM
- TGI [43]: 2.45 µM
- GI50 [44]: 0.738 µM
- TGI [44]: 2.35 µM
- GI50 [45]: 1.25 µM
- TGI [45]: 2.76 µM
- GI50 [46]: 0.883 µM
- TGI [46]: 2.52 µM
- GI50 [47]: 1.22 µM
- TGI [47]: 2.89 µM
- GI50 [48]: 1.19 µM
- TGI [48]: 2.43 µM
- GI50 [49]: 0.336 µM
- TGI [49]: 16.4 µM
- GI50 [50]: 1.14 µM
- TGI [50]: 2.4 µM
- GI50 [51]: 0.388 µM
- TGI [51]: 2.64 µM
- GI50 [52]: 0.455 µM
- TGI [52]: 1.86 µM
- GI50 [53]: 0.821 µM
- TGI [53]: 2.74 µM
- GI50 [54]: 1.34 µM
- TGI [54]: 2.75 µM
- GI50 [55]: 0.442 µM
- TGI [55]: 2.18 µM
